Measurements: patent publication US20060276464A1, “Diarylsulfone sulfonamides and use thereof” (Wyeth, priority 2005, published 2006)
Like-named read-outs stand apart in the source and are kept apart here.

Target: T1, SFRP-1 (Homo sapiens, UniProt Q8N474)
T1 sequence (Q8N474 32-314): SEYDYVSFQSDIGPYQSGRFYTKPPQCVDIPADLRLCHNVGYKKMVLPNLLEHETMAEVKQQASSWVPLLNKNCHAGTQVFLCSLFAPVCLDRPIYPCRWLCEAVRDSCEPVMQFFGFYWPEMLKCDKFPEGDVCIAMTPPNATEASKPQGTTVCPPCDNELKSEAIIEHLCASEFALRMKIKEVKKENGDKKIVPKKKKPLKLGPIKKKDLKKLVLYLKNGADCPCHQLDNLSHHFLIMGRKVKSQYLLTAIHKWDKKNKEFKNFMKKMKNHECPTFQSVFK
Experiment: Cell-based assay for in vitro measurement of SFRP-1/SARP2 antagonist activity (U2OS cells co-transfected with 16x TCF-tk-Luciferase reporter, Wnt and hSFRP-1);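 further: U2OS cells co-transfected with a TCF-tk luciferase reporter, a Wnt vector, hSFRP-1 or empty vector and CMV-βgal, luciferase luminescence read in cell lysates alongside βgal activity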

[1] = U2OS, read-out: Fold Induction with SFRP-1, Conc 15 μM, with SFRP-1, fold induction over SFRP-1 control, single dose
[2] = U2OS, read-out: Fold Induction without SFRP-1, Conc 15 μM, without SFRP-1, single dose
[3] = U2OS, read-out: Fold Induction with SFRP-1, Conc 15 μM, single dose, luciferase reporter, fold induction over SFRP-1 control, cells with SFRP-1
[4] = U2OS, read-out: Fold Induction without SFRP-1, Conc 15 μM, single dose, luciferase reporter, cells without SFRP-1 (specificity control)
[5] = U2OS, read-out: Fold Induction with SFRP-1, Conc 30 μM, with SFRP-1, fold induction over SFRP-1 control, single dose
[6] = U2OS, read-out: Fold Induction without SFRP-1, Conc 30 μM, without SFRP-1, single dose
[7] = U2OS, read-out: Fold Induction with SFRP-1, Conc 20 μM, with SFRP-1, fold induction over SFRP-1 control, single dose
[8] = U2OS, read-out: Fold Induction without SFRP-1, Conc 20 μM, without SFRP-1, single dose
[9] = Conc 15 μM, with SFRP-1, fold induction over SFRP-1 control, single dose

Cc1cc(C)c(S(=O)(=O)c2ccccc2)cc1S(=O)(=O)NC1CCOCC1 [Example 327, 2,4-dimethyl-5-(phenylsulfonyl)-N-tetrahydro-2H-pyran-4-ylbenzenesulfonamide]
fold induction at 15 µM [1]: 2.7 | fold induction at 15 µM [2]: 1

Cc1c(S(=O)(=O)NCCc2ccccn2)cccc1S(=O)(=O)c1ccccc1 [Example 494, 2-methyl-3-(phenylsulfonyl)-N-(2-pyridin-2-ylethyl)benzenesulfonamide]
fold induction at 15 µM [3]: 1 | fold induction at 15 µM [4]: 1.1

Cc1ccc(S(=O)(=O)c2ccc(F)cc2)cc1S(=O)(=O)NCCc1ccncc1 [Example 165, 5-[(4-fluorophenyl)sulfonyl]-2-methyl-N-(2-pyridin-4-ylethyl)benzenesulfonamide]
fold induction at 15 µM [1]: 3.3 | fold induction at 15 µM [2]: 1

Cc1ccc(S(=O)(=O)c2ccc(Br)cc2)cc1S(=O)(=O)NC1CCOCC1 [Example 375, 5-[(4-bromophenyl)sulfonyl]-2-methyl-N-(tetrahydro-2H-pyran-4-yl)benzenesulfonamide]
fold induction at 15 µM [1]: 1.9 | fold induction at 15 µM [2]: 0.9

Cc1ccc(S(=O)(=O)c2ccccc2)cc1S(=O)(=O)NC1CCN(Cc2ccccc2)C1 (centres unmarked) [Example 414, N-(1-benzylpyrrolidin-3-yl)-2-methyl-5-(phenylsulfonyl)benzenesulfonamide]
fold induction at 15 µM [1]: 2 | fold induction at 15 µM [2]: 1.3

CCCc1ccc(S(=O)(=O)c2ccc(F)cc2)cc1S(N)(=O)=O [Example 566, 5-[(4-Fluorophenyl)sulfonyl]-2-propylbenzenesulfonamide]
fold induction at 15 µM [3]: 1.5 | fold induction at 15 µM [4]: 1.3

CCOc1ccc(CCNS(=O)(=O)c2cccc(S(=O)(=O)c3ccccc3)c2)cc1 [Example 80, N-[2-(4-ethoxyphenyl)ethyl]-3-(phenylsulfonyl)benzenesulfonamide]
fold induction at 15 µM [1]: 1 | fold induction at 15 µM [2]: 0.7

Cc1ccc(S(=O)(=O)c2ccc(F)cc2)cc1S(=O)(=O)NCCc1ccccc1Cl [Example 3, N-[2-(2-chlorophenyl)ethyl]-5-[(4-fluorophenyl)sulfonyl]-2-methylbenzenesulfonamide]
fold induction at 30 µM [5]: 1.1 | fold induction at 30 µM [6]: 0.4

Cc1cc(S(=O)(=O)c2ccccc2)cc(S(=O)(=O)NC2CCOCC2)c1C [Example 350, 2,3-dimethyl-5-(phenylsulfonyl)-N-(tetrahydro-2H-pyran-4-yl)benzenesulfonamide]
fold induction at 15 µM [1]: 1.8 | fold induction at 15 µM [2]: 1.3

Cc1cc(C)c(S(=O)(=O)c2ccc(F)cc2)cc1S(=O)(=O)NC1CCOCC1 [Example 332, 5-[(4-fluorophenyl)sulfonyl]-2,4-dimethyl-N-(tetrahydro-2H-pyran-4-yl)benzenesulfonamide]
fold induction at 15 µM [1]: 3 | fold induction at 15 µM [2]: 1

CCN(CC)CCCNS(=O)(=O)c1cc(S(=O)(=O)c2ccc(F)cc2)ccc1C [Example 176, N-[3-(diethylamino)propyl]-5-[(4-fluorophenyl)sulfonyl]-2-methylbenzenesulfonamide]
fold induction at 15 µM [1]: 2.6 | fold induction at 15 µM [2]: 1.3

Cc1ccc(S(=O)(=O)c2ccc(C)c(S(=O)(=O)NC[C@H](C)c3ccccc3)c2)cc1 [Example 254, 2-methyl-5-[(4-methylphenyl)sulfonyl]-N-[(2R)-2-phenylpropyl]benzenesulfonamide]
fold induction at 20 µM [7]: 3 | fold induction at 20 µM [8]: 1

Cc1ccc(S(=O)(=O)c2ccc(Cl)c(Cl)c2)cc1S(=O)(=O)NCCCn1ccnc1 [Example 340, 5-[(3,4-dichlorophenyl)sulfonyl]-N-[3-(1H-imidazol-1-yl)propyl]-2-methylbenzenesulfonamide]
fold induction at 15 µM [1]: 2.5 | fold induction at 15 µM [2]: 1

CC(C)c1ccc(S(=O)(=O)c2ccc3c(c2)C(C)(C)OC(=O)N3)cc1S(=O)(=O)NCCc1ccccn1 [Example 515, 5-[(4,4-dimethyl-2-oxo-1,4-dihydro-2H-3,1-benzoxazin-6-yl)sulfonyl]-2-isopropyl-N-(2-pyridin-2-ylethyl)benzenesulfonamide]
fold induction at 15 µM [3]: 1.8 | fold induction at 15 µM [4]: 1

C=CCN(CCc1ccc(OC)c(OC)c1)S(=O)(=O)c1cc(S(=O)(=O)c2ccccc2)ccc1C [Example 273, N-allyl-N-[2-(3,4-dimethoxyphenyl)ethyl]-2-methyl-5-(phenylsulfonyl)benzenesulfonamide]
fold induction at 15 µM [1]: 0.9 | fold induction at 15 µM [2]: 1

O=C(NCCNS(=O)(=O)c1cc(S(=O)(=O)c2ccccc2)ccc1C(F)(F)F)c1ccc(OC(F)(F)F)cc1 [Example 782, N-[2-({[5-(Phenylsulfonyl)-2-(trifluoromethyl)phenyl]sulfonyl}amino)ethyl]-4-(trifluoromethoxy)benzamide]
fold induction at 10 µM (U2OS, read-out: Fold Induction with SFRP-1, U2OS cells, single dose 10 μM, luciferase reporter, fold induction over SFRP-1 control): 1.2

CCc1ccc(S(=O)(=O)c2ccccc2)cc1S(=O)(=O)NCCC1CCOCC1 [Example 301, 2-ethyl-5-(phenylsulfonyl)-N-(2-tetrahydro-2H-pyran-4-ylethyl)benzenesulfonamide]
fold induction at 15 µM [1]: 3.3 | fold induction at 15 µM [2]: 1.2

Cc1ccc(S(=O)(=O)c2ccc(Cl)cc2)cc1S(=O)(=O)NC1Cc2ccccc2C1 [Example 255, 5-[(4-chlorophenyl)sulfonyl]-N-2,3-dihydro-1H-inden-2-yl-2-methylbenzenesulfonamide]
fold induction at 20 µM [7]: 2.6 | fold induction at 20 µM [8]: 1.1

CCC(CC)NS(=O)(=O)c1cc(S(=O)(=O)c2ccccc2)ccc1C [Example 397, N-(1-ethylpropyl)-2-methyl-5-(phenylsulfonyl)benzenesulfonamide]
fold induction at 15 µM [1]: 1.2 | fold induction at 15 µM [2]: 1.1

Cc1ccc(S(=O)(=O)c2ccc(NCCCOC(C)C)cc2)cc1S(=O)(=O)NCCCn1ccnc1 [Example 367, N-[3-(1H-imidazol-1-yl)propyl]-5-({4-[(3-isopropoxypropyl)amino]phenyl}sulfonyl)-2-methylbenzenesulfonamide]
fold induction at 15 µM [1]: 2.2 | fold induction at 15 µM [2]: 0.9

Cc1ccc(S(=O)(=O)c2ccccc2Cl)cc1S(=O)(=O)NCCCn1ccnc1 [Example 377, 5-[(2-chlorophenyl)sulfonyl]-N-[3-(1H-imidazol-1-yl)propyl]-2-methylbenzenesulfonamide]
fold induction at 15 µM [1]: 1.9 | fold induction at 15 µM [2]: 1.1

COc1ccc(S(=O)(=O)c2ccccc2)cc1S(=O)(=O)NCCc1cccc(F)c1 [Example 155, N-[2-(3-fluorophenyl)ethyl]-2-methoxy-5-(phenylsulfonyl)benzenesulfonamide]
fold induction at 15 µM [1]: 1.5 | fold induction at 15 µM [2]: 1.2

Cc1ccc(S(=O)(=O)c2ccc(F)cc2)cc1S(=O)(=O)NCCCN1CCOCC1 [Example 163, 5-[(4-fluorophenyl)sulfonyl]-2-methyl-N-(3-morpholin-4-ylpropyl)benzenesulfonamide]
fold induction at 15 µM [1]: 2 | fold induction at 15 µM [2]: 0.9

Cc1ccc(S(=O)(=O)c2ccc(F)cc2)cc1S(=O)(=O)NCCc1ccccn1 [Example 162, 5-[(4-fluorophenyl)sulfonyl]-2-methyl-N-(2-pyridin-2-ylethyl)benzenesulfonamide]
Fold Induction with SFRP-1 [9]: 2.5 fold | Fold Induction without SFRP-1 (Conc 15 μM, without SFRP-1, single dose): 1 fold | fold induction at 15 µM [1]: 2.7 | fold induction at 15 µM [2]: 0.8

Cc1ccc(S(=O)(=O)c2ccc(C)c(S(=O)(=O)NC[C@@H](C)c3ccccc3)c2)cc1 [Example 264, 2-methyl-5-[(4-methylphenyl)sulfonyl]-N-[(2S)-2-phenylpropyl]benzenesulfonamide]
Fold Induction with SFRP-1 [9]: 1.7 fold | fold induction at 15 µM [1]: 1.1 | fold induction at 15 µM [2]: 0.9

CC(C)(C)OC(=O)N1CCC(NS(=O)(=O)c2cc(S(=O)(=O)c3ccccc3)ccc2Cl)CC1 [Example 623, tert-butyl 4-({[2-chloro-5-(phenylsulfonyl)phenyl]sulfonyl}amino)piperidine-1-carboxylate]
fold induction at 15 µM [3]: 2.2 | fold induction at 15 µM [4]: 1.1

COCCNS(=O)(=O)c1cc(S(=O)(=O)c2ccccc2)ccc1C [Example 217, N-(2-methoxyethyl)-2-methyl-5-(phenylsulfonyl)benzenesulfonamide]
fold induction at 15 µM [1]: 2.5 | fold induction at 15 µM [2]: 1

O=S(=O)(NCCN1CCCCC1)c1cccc(S(=O)(=O)c2ccccc2)c1 [Example 188, 3-(phenylsulfonyl)-N-(2-piperidin-1-ylethyl)benzenesulfonamide]
fold induction at 30 µM [5]: 1.4 | fold induction at 30 µM [6]: 1.4

C#CCN(CCc1ccccc1F)S(=O)(=O)c1cc(S(=O)(=O)c2ccc(C)cc2)ccc1C [Example 277, N-[2-(2-fluorophenyl)ethyl]-2-methyl-5-[(4-methylphenyl)sulfonyl]-N-prop-2-ynylbenzenesulfonamide]
fold induction at 15 µM [1]: 1.8 | fold induction at 15 µM [2]: 1

Cc1ccc(S(=O)(=O)c2ccc(C(C)(C)O)cc2)cc1S(=O)(=O)NCCc1ccccn1 [Example 405, 5-{[4-(1-hydroxy-1-methylethyl)phenyl]sulfonyl}-2-methyl-N-(2-pyridin-2-ylethyl)benzenesulfonamide]
fold induction at 15 µM [1]: 2.1 | fold induction at 15 µM [2]: 1.1
